Source: patent publication US20080253996A1, “Use of Sdf-1 for the Treatment and/or Prevention of Neurological Diseases” (LABORATORIES SERONO SA, priority 2005, published 2008)

Experiments:
STZ-rats = experiment: STZ diabetic neuropathy, morphometric analysis of sciatic nerve and skin biopsy; type: in vivo, rat; conditions: day 40 post STZ; for density of intra-epidermal nerve fibers: vs vehicle
Procedure: Morphometric analysis was performed at the end of the study. The animals were anesthetized by IP injection of 60 mg/kg Imalgéne 500®. A 5 mm-segment of sciatic nerve was excised for histology. The tissue was fixed overnight with 4% glutaraldehyde (Sigma, L'Isle d'Abeau-Chesnes, France) solution in phosphate buffer solution (pH 7.4) and maintained in 30% sucrose at +4° C. until use. The nerve sample was fixed in 2% osmium tetroxide (Sigma) solution in phosphate buffer solution for 2 h, dehydrated in serial alcohol solution, and embedded in Epon. Embedded tissues were then placed at +70° C. during 3 days of polymerization. Transverse sections of 1.5 μm thickness were obtained using a microtome. They were stained with a 1% toluidine blue solution (Sigma) for 2 min, dehydrated and mounted in Eukitt.
Analysis was performed on the entire surface of the nerve section using a semi-automated digital image analysis software (Biocom, France). Once extraneous objects had been eliminated, the software reported the total number of myelinated fibers. The number of degenerated fibers was then counted manually by an operator. Myelinated fibers without axons, redundant myelin and fibers showing sheaths with too large thickness in respect to their axonal diameter were considered as fibers undergoing processes of degeneration. The number of non-degenerated fibers was obtained by subtraction of the number of degenerated fibers.
Morphological analysis was performed only on fibers considered as non-degenerated. For each fiber, the axonal and myelin sizes were reported in surface area (μm^2). These two parameters were used to calculate the equivalent area of g-ratio (axonal diameter/fiber diameter) of each fiber (i.e., [A/(A+M)]^0.5, A=axonal area, M=myelin area), indicative of the relative myelin sheath thickness.
In addition, a 5-10 mm diameter area of skin was punch-biopsied from the hindpaw. Skin samples were immediately fixed overnight in paraformaldehyde at 4° C., incubated (overnight) in 30% sucrose in 0.1 M PBS for cryoprotection, embedded in OCT and frozen at −80° C. until cryocut.
50 μm-thick cryosections were then cut vertical to the skin surface with a cryostat. Free-floating sections were incubated for 7 days in a bath of rabbit anti-protein gene product 9.5 (1:10000; Ultraclone, Isle of Man, UK) at 4° C. The sections were then processed to reveal immunoreactivity according to the ABC peroxidase method. Briefly, they were incubated in for 1 h with biotinylated […] antibody (1:200), then 30 min in the avidin biotinylated complex at room temperature. Peroxidase activity was visualized using DAB system. Sections were then counterstained with eosin or hematoxylin. Sections were dehydrated, clear with bioclear and mounted on eukitt. Photos of microscope fields were performed at 20× power magnification view using Nikon digital camera at focal distance of 12.9 mm. The number of intra-epidermal nerves on 3 microscope fields of […] (544×408 μm) each was counted by the experimenter on computer screen.
Global analysis of the data was performed using one factor or repeated measure analysis of variance (ANOVA) and one-way ANOVA. When ANOVA indicated significant difference, Fisher Protected Least Significant Difference was used as post-hoc test to compare experimental groups with the group of diabetic rats treated with the vehicle. The level of significance was set at p≦0.05. Results are expressed as mean ±standard error of the mean (s.e.m.).

sciatic nerve crush mice = experiment: Neuropathy induced by sciatic nerve crush, electrophysiological recording (CMAP); type: in vivo, mouse; conditions: for increase in the CMAP amplitude as compared to untreated mice: SDF-1α 30 μg/kg or μ/kg, IL-6 30 μ/kg s.c., significant at 15 dpl and 22dpl
Procedure: […] 8 week-old females C57bl/6 RJ mice (Elevage Janvier, Le Genest-St-Isle, France) were used. They were divided into 6 groups (n=6): • (a) nerve crush/Vehicle (Saline/0.02% BSA); • (b) nerve crush/SDF-1α (3 μg/kg); • (c) nerve crush/SDF-1α (10 μg/kg); • (d) nerve crush/SDF-1α (30 μg/kg); • (e) nerve crush/SDF-1α (100 μg/kg); • (f) nerve crush/IL-6 (30 μg/kg).
The animals were anaesthetized by inhalation of 3% Isoflurane (Baxter). The right sciatic nerve was surgically exposed at mid thigh level and crushed at 5 mm proximal to the trifurcation of the sciatic nerve. The nerve was crushed twice for 30s with a haemostatic forceps (width 1.5 mm; Koenig; Strasbourg; France) with a 90-degree rotation between each crush.
Electromyographical (EMG) testing was performed once before the surgery day and each week during 3 weeks following the operation.
The day of nerve crush surgery was considered as dpl 0 (dpl=day post lesion). No test was performed during the 4 days following the crush.
From the day of nerve injury to the end of the study, SDF-1α, IL-6 or Vehicle were administered daily by subcutaneous injections (s.c.) route, 5 days per week.
Electrophysiological recordings were performed using a Neuromatic 2000M electromyograph (EMG) (Dantec, Les Ulis, France). Mice were anaesthetized by inhalation of 3% Isofluran® (Baxter). The normal body temperature was maintained using a heated operating table (Minerve, Esternay, France).
Compound muscle action potential (CMAP) was measured in the gastrocnemius muscle after a single 0.2 ms stimulation of the sciatic nerve at a supramaximal intensity (12.8 mA). The amplitude (mV) and the latency (ms) of the action potential were measured on the operated leg. The measures was also registered on the contralateral (uncrushed) leg of Vehicle treated animals (Baseline). The amplitude is indicative of the number of active motor units, while the distal latency indirectly reflects motor nerve conduction and neuromuscular transmission velocities, which depends in part on the degree of myelination.
Global analysis of the data was performed using one-way ANOVA. Dunnett's test was used further, and data were compared to the “vehicle” control. The level of significance was set at a: p<0.001; b or **: p<0.01; c or *: p<0.05; d: p<0.1. The results were expressed as mean ±standard error of the mean (s.e.m.).
The sciatic nerve crush model described in Example 4 above was carried out to test SDF-1α variant as defined in SEQ ID NO: 4 and the mice were divided into the following 2 groups (n=6):
The SDF-1α variant used in this example and encoded by SEQ ID NO: 4 was expressed with an additional N terminal Methionine. The CMAP duration (time needed for a depolarization and a repolarization session) was also recorded.
The sciatic nerve crush model described in Example 4 above was carried out to test Met-SDF-1α (as defined in SEQ ID NO: 7) and the mice were divided into the following 2 groups (n=6):
(b) nerve crush/Met-SDF-1α variant at 100, 30, and 10 μg/kg s.c.

[1] = SDF-1α 10, 30, 100 μg/kg, IL-6 10 μg/kg s.c.
[2] = SDF-1α especially 10 or 30 μg/kg, IL-6 10 μg/kg s.c.

| Substance | g-ratio (relative myelin thickness) vs STZ/Vehicle group (STZ-rats; 100 μg/kg s.c.) | number of degenerated fibers in the sciatic nerve (STZ-rats; [1]) | density of intra-epidermal nerve fibers (STZ-rats; [1]) | g-ratio (relative myelin thickness) vs STZ/Vehicle group (STZ-rats; [2]) | number of degenerated fibers in the sciatic nerve (STZ-rats; lowest dose 10 μg/kg s.c. (best effect)) | potency on CMAP latency compared with IL-6 (30 μg/kg) (sciatic nerve crush mice; 30 μg/kg s.c.) | increase in the CMAP amplitude as compared to untreated mice (sciatic nerve crush mice) | CMAP latency vs vehicle treated mice (sciatic nerve crush mice; day 7, SDF-1α 30 μg/kg and 100 μg/kg, IL-6 30 μg/kg s.c.) | CMAP latency vs vehicle treated mice (sciatic nerve crush mice; dpl 15 and 22, 30 μg/kg and 100 μg/kg s.c.) |
| --- | --- | --- | --- | --- | --- | --- | --- | --- | --- |
| SDF-1α: Human recombinant chemokine SDF-1α (SEQ ID NO: 1), produced in house, expressed in E. Coli cells | did not reach the significance level | reduction of degenerated fibers population | significantly greater density | significantly reduced | reached the significance level | more potent than IL-6 | about 1.5 times | significantly reduced | significant effect |
| IL-6: reference (positive) control compound in nerve crush and STZ models [reference compound] | – | significantly reduced population of degenerated fibers | markedly prevented | significant reduction | – | – | about 1.5 times | – | – |
